Laboratory results as given in article PMC9889419 (Pharmacological Reports, 2022).
pEC50: −log10 of the molar value. Where a name gives a salt, the structure may show the parent alone.

Key:
anaesthetized rat = assay: Effect on normal electrocardiogram; format: in vivo, rats;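 further: standard lead II ECG run at 50 mm/s, taken before dosing and at serial times up to 60 min after iv or 90 min after po administration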
Method: The effect on normal electrocardiogram. In vivo electrocardiographic investigations were carried out on using ASPEL ASCARD B5, (Aspel, Poland) apparatus, standard lead II, and paper speed of 50 mm/s. The ECG was recorded just prior to and also 1, 2, 3, 5, 10, 15, 20, 30, 40, 50, and 60 min following the iv or 5, 10, 20, 30, 40, 50, 60, 70, 80, 90 following the po administration of the compound.

[1] = test system: CYP3A1 (pregnane X receptor); assay: In vitro metabolic gene induction studies; format: cell-based, rat
Method: Test 28 - In Vitro Metabolic Gene lnduction Studies
:.!,iIir:- i- :: ar!-'{}-: i
Solvent Code: DMSO Solvent Prep: Unit: uM
Cell line source: Puracyp Molecular 257.7590
Date Staded: 05+eb-20'10 Date Completed: 15-Feb-2010 Weight:
Reference: Lamb bool#8 pg. 77 […]
lsoform Code: CYP3A1 Cell line: RPXR lnduc60n mechanism:pregnane X receptor
Concentration lnduction Cell […]
Note: Box checked if data is significantty different.
Max induction 2 fold @ 200uM
(calculated): signlficant decrease in vlabllity at this conc€nbaffon in vitro.
(1 picture or pasted object on this page, not shown here)

CB1 = target: T1, CB1 (Homo sapiens, UniProt P21554); assay: Radioligand binding; conditions: 100 μM
T1 construct: purchased Eurofins CEREP
T1 sequence (P21554 whole entry): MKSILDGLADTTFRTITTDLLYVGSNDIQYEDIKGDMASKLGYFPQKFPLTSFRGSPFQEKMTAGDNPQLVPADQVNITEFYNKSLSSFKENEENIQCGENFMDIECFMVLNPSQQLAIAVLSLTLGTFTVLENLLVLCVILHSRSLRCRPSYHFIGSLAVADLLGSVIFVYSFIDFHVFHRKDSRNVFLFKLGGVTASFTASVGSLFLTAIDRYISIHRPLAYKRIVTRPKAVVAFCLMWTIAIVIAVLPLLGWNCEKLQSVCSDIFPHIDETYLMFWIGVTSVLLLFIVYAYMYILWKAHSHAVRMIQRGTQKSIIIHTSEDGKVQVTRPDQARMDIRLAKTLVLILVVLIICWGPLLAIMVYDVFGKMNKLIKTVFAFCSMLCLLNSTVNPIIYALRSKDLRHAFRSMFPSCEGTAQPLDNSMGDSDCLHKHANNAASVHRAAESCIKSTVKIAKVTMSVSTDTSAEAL

PPARγ = target: T2, PPARγ (Homo sapiens, UniProt P37231); assay: Radioligand binding; conditions: 100 μM
T2 construct: purchased Eurofins CEREP
T2 sequence (P37231 whole entry): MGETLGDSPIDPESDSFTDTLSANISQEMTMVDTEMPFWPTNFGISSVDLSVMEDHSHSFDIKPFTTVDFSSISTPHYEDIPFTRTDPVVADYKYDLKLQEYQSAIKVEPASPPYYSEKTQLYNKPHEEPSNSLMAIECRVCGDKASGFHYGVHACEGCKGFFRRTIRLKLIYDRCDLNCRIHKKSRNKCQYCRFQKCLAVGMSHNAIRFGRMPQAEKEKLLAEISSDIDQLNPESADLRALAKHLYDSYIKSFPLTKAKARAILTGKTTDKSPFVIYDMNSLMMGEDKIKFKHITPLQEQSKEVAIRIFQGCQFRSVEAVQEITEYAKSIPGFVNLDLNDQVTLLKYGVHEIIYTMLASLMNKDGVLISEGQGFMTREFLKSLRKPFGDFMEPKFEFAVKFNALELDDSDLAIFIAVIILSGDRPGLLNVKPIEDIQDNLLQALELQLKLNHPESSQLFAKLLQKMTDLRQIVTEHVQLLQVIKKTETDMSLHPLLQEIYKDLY

sst (non-selective) = assay: Radioligand binding; conditions: 100 μM
GAL2 = target: T3, GAL2 (Homo sapiens, UniProt O43603); assay: Radioligand binding; conditions: 100 μM
T3 construct: purchased Eurofins CEREP
T3 sequence (O43603 whole entry): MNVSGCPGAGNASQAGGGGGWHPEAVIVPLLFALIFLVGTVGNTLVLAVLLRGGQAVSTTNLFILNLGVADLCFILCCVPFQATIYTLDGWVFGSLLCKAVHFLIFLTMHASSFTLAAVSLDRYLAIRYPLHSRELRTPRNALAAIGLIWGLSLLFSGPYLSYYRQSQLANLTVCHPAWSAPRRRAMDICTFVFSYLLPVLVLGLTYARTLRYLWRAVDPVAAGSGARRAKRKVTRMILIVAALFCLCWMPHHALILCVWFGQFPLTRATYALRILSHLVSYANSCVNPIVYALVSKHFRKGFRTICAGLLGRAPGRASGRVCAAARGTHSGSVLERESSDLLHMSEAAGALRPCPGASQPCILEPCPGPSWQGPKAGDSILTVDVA

5-HT5a = target: T4, 5-HT5a (Homo sapiens, UniProt P47898); assay: Radioligand binding; conditions: 100 μM
T4 construct: purchased Eurofins CEREP
T4 sequence (P47898 whole entry): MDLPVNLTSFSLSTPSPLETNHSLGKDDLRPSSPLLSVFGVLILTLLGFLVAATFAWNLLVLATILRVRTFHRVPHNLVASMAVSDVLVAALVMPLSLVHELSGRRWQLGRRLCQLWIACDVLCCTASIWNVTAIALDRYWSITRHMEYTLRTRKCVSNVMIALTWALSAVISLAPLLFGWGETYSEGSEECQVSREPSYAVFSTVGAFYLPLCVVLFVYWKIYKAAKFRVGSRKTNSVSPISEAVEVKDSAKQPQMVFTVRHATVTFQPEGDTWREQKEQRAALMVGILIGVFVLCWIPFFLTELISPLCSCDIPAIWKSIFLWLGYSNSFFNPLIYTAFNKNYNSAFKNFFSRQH

A1 = target: T5, A1 (Homo sapiens, UniProt P30542); assay: Radioligand binding; conditions: 100 μM
T5 construct: purchased Eurofins CEREP
T5 sequence (P30542 whole entry): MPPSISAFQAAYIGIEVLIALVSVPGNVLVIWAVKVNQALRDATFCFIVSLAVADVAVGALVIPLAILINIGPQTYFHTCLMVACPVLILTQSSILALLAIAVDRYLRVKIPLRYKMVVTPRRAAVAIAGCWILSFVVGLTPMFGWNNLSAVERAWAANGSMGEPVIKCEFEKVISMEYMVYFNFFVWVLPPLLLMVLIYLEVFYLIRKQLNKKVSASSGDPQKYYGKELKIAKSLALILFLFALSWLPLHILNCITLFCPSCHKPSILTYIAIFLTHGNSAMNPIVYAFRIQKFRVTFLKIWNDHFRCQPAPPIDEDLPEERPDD

CCK2 (CCKB) = target: T6, CCK2 (CCKB) (Homo sapiens, UniProt P32239); assay: Radioligand binding; conditions: 100 μM
T6 construct: purchased Eurofins CEREP
T6 sequence (P32239 whole entry): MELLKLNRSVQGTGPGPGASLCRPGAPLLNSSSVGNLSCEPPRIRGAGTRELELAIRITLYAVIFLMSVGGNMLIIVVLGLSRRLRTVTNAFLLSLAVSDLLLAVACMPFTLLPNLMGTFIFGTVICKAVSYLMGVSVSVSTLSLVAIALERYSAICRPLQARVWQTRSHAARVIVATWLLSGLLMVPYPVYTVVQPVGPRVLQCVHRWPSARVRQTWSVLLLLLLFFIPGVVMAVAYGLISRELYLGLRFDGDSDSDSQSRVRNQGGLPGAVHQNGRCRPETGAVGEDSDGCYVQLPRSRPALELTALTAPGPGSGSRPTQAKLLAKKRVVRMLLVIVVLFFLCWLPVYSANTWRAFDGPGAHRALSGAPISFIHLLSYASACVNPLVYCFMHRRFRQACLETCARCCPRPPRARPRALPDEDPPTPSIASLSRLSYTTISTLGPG

5-HT3 = target: T7, 5-HT3 (Homo sapiens, UniProt P46098); assay: Radioligand binding; conditions: 100 μM
T7 construct: purchased Eurofins CEREP
T7 sequence (P46098 24-478): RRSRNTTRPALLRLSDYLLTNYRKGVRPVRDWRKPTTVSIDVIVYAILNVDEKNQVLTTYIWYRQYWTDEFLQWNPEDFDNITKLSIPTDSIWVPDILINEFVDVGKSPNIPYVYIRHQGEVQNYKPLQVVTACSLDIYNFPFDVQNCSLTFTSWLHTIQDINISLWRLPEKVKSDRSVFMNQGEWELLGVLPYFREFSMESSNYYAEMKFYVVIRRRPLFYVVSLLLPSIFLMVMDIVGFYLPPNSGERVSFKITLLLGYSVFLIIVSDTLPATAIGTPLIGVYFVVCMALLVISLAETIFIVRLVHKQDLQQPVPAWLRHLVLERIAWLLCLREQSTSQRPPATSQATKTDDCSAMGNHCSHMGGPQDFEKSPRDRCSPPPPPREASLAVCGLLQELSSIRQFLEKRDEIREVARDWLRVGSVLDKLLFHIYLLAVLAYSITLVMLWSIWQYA

D5 = target: T8, D5 (Homo sapiens, UniProt P21918); assay: Radioligand binding; conditions: 100 μM
T8 construct: purchased Eurofins CEREP
T8 sequence (P21918 whole entry): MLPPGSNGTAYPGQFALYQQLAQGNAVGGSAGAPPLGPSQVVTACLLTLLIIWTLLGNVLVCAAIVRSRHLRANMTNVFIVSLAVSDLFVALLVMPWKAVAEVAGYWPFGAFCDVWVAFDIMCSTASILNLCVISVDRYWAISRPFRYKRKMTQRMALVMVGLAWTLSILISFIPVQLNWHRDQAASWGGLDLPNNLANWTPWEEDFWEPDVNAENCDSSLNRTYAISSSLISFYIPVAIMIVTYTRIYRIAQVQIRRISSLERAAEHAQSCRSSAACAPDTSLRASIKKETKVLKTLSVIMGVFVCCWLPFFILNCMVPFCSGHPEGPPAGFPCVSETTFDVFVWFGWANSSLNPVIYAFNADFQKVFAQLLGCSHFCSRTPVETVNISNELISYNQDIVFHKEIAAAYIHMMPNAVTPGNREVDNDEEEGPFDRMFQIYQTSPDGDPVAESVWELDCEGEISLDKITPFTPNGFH

Y2 = target: T9, Y2 (Homo sapiens, UniProt P49146); assay: Radioligand binding; conditions: 100 μM
T9 construct: purchased Eurofins CEREP
T9 sequence (P49146 whole entry): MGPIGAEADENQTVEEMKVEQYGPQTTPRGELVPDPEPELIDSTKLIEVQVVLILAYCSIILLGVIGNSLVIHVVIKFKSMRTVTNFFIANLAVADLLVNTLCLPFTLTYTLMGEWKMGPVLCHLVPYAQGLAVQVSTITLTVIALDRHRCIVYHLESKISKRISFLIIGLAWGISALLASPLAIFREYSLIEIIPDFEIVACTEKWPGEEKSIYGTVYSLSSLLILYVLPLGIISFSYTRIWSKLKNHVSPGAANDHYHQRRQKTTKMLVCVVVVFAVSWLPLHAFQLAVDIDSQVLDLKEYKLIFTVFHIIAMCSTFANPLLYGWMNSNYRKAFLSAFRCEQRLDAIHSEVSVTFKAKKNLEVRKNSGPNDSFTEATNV

CCR1 = target: T10, CCR1 (Homo sapiens, UniProt P32246); assay: Radioligand binding; conditions: 100 μM
T10 construct: purchased Eurofins CEREP

ETB = target: T11, ETB (Homo sapiens, UniProt P24530); assay: Radioligand binding; conditions: 100 μM
T11 construct: purchased Eurofins CEREP
T11 sequence (P24530 27-442): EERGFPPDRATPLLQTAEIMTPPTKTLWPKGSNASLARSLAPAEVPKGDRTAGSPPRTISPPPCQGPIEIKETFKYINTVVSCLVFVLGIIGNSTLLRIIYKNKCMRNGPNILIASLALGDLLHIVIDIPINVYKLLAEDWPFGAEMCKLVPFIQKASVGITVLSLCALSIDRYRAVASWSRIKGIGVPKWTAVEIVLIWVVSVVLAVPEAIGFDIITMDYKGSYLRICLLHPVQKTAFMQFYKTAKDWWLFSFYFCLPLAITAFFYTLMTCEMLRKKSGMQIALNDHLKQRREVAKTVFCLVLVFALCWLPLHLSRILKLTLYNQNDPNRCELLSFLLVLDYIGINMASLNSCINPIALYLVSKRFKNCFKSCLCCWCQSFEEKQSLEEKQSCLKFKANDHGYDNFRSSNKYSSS

CCK1 (CCKA) = target: T12, CCK1 (CCKA) (Homo sapiens, UniProt P32238); assay: Radioligand binding; conditions: 100 μM
T12 construct: purchased Eurofins CEREP
T12 sequence (P32238 whole entry): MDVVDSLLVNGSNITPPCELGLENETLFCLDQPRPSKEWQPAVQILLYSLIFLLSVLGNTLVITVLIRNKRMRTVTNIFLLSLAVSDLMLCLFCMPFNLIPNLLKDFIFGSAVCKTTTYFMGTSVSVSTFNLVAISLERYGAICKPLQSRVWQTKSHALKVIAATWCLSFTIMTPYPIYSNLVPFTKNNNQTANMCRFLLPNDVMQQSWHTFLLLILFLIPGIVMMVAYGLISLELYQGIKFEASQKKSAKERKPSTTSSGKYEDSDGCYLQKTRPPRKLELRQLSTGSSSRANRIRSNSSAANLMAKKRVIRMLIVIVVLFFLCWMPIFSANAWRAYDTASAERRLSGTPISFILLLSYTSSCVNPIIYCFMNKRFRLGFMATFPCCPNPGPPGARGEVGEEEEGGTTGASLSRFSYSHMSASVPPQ

**Q.** How did the PQ (anaesthetized rat; 5 mg/kg iv, 0 min) turn out when `CCC(CO)NCCOc1c(C)cccc1Cl` (stereo not shown) [KM-408, R,S-2-((2-(2-chloro-6-methylphenoxy)ethyl)amino)butan-1-ol hydrochloride] was run?
**A.** 50.5 ± 2.6 ms

**Q.** What about the QT (anaesthetized rat; 5 mg/kg iv, 0 min) of the same compound?
**A.** 56.8 ± 3.8 ms

**Q.** What about the PQ (anaesthetized rat; 5 mg/kg iv, 1 min) of the same compound?
**A.** 59.5 ± 5.3 ms

**Q.** And the QT (anaesthetized rat; 5 mg/kg iv, 1 min)?
**A.** 58.0 ± 3.4 ms

**Q.** What about the PQ (anaesthetized rat; 5 mg/kg iv, 3 min) of the same compound?
**A.** 54.8 ± 2.9 ms

**Q.** And the QT (anaesthetized rat; 5 mg/kg iv, 3 min)?
**A.** 60.0 ± 2.8 ms

**Q.** What about the PQ (anaesthetized rat; 5 mg/kg iv, 5 min) of the same compound?
**A.** 54.4 ± 2.3 ms

**Q.** What about the QT (anaesthetized rat; 5 mg/kg iv, 5 min) of the same compound?
**A.** 56.8 ± 3.9 ms

**Q.** And the PQ (anaesthetized rat; 5 mg/kg iv, 10 min)?
**A.** 54.0 ± 1.9 ms

**Q.** What about the QT (anaesthetized rat; 5 mg/kg iv, 10 min) of the same compound?
**A.** 56.2 ± 4.2 ms

**Q.** What about the PQ (anaesthetized rat; 5 mg/kg iv, 15 min) of the same compound?
**A.** 54.4 ± 1.9 ms

**Q.** And the QT (anaesthetized rat; 5 mg/kg iv, 15 min)?
**A.** 55.2 ± 4.1 ms

**Q.** What about the PQ (anaesthetized rat; 5 mg/kg iv, 20 min) of the same compound?
**A.** 54.4 ± 2.0 ms

**Q.** And the QT (anaesthetized rat; 5 mg/kg iv, 20 min)?
**A.** 56.0 ± 4.0 ms

**Q.** And the PQ (anaesthetized rat; 5 mg/kg iv, 30 min)?
**A.** 54.8 ± 1.7 ms

**Q.** And the QT (anaesthetized rat; 5 mg/kg iv, 30 min)?
**A.** 57.2 ± 3.7 ms

**Q.** And the PQ (anaesthetized rat; 5 mg/kg iv, 40 min)?
**A.** 53.6 ± 2.2 ms

**Q.** What about the QT (anaesthetized rat; 5 mg/kg iv, 40 min) of the same compound?
**A.** 57.0 ± 3.7 ms

**Q.** What about the PQ (anaesthetized rat; 5 mg/kg iv, 50 min) of the same compound?
**A.** 53.6 ± 2.6 ms

**Q.** What about the QT (anaesthetized rat; 5 mg/kg iv, 50 min) of the same compound?
**A.** 58.8 ± 3.4 ms

**Q.** And the PQ (anaesthetized rat; 5 mg/kg iv, 60 min)?
**A.** 53.6 ± 1.5 ms

**Q.** What about the QT (anaesthetized rat; 5 mg/kg iv, 60 min) of the same compound?
**A.** 56.0 ± 4.0 ms

**Q.** And the “influence on heart rate or ECG intervals” value (anaesthetized rat; 50 mg/kg po)?
**A.** did not influence

**Q.** What about the PQ (anaesthetized rat; 50 mg/kg po, 0 min) of the same compound?
**A.** 55.6 ± 1.8 ms

**Q.** What about the QT (anaesthetized rat; 50 mg/kg po, 0 min) of the same compound?
**A.** 55.2 ± 3.9 ms

**Q.** And the PQ (anaesthetized rat; 50 mg/kg po, 5 min)?
**A.** 59.2 ± 1.9 ms

**Q.** What about the QT (anaesthetized rat; 50 mg/kg po, 5 min) of the same compound?
**A.** 60.0 ± 0.0 ms

**Q.** What about the PQ (anaesthetized rat; 50 mg/kg po, 10 min) of the same compound?
**A.** 59.6 ± 2.1 ms

**Q.** What about the QT (anaesthetized rat; 50 mg/kg po, 10 min) of the same compound?
**A.** 59.2 ± 0.8 ms

**Q.** What about the PQ (anaesthetized rat; 50 mg/kg po, 20 min) of the same compound?
**A.** 59.0 ± 1.0 ms

**Q.** What about the QT (anaesthetized rat; 50 mg/kg po, 20 min) of the same compound?
**A.** 58.0 ± 2.0 ms

**Q.** What about the PQ (anaesthetized rat; 50 mg/kg po, 30 min) of the same compound?
**A.** 57.4 ± 1.2 ms

**Q.** And the QT (anaesthetized rat; 50 mg/kg po, 30 min)?
**A.** 58.4 ± 1.0 ms

**Q.** What about the PQ (anaesthetized rat; 50 mg/kg po, 40 min) of the same compound?
**A.** 59.2 ± 1.5 ms

**Q.** What about the QT (anaesthetized rat; 50 mg/kg po, 40 min) of the same compound?
**A.** 59.2 ± 0.8 ms

**Q.** What about the PQ (anaesthetized rat; 50 mg/kg po, 50 min) of the same compound?
**A.** 58.4 ± 1.0 ms

**Q.** And the QT (anaesthetized rat; 50 mg/kg po, 50 min)?
**A.** 58.8 ± 1.2 ms

**Q.** What about the PQ (anaesthetized rat; 50 mg/kg po, 60 min) of the same compound?
**A.** 58.4 ± 1.6 ms

**Q.** What about the QT (anaesthetized rat; 50 mg/kg po, 60 min) of the same compound?
**A.** 58.8 ± 1.2 ms

**Q.** And the PQ (anaesthetized rat; 50 mg/kg po, 70 min)?
**A.** 59.6 ± 1.0 ms

**Q.** What about the QT (anaesthetized rat; 50 mg/kg po, 70 min) of the same compound?
**A.** 61.2 ± 4.2 ms

**Q.** What about the PQ (anaesthetized rat; 50 mg/kg po, 80 min) of the same compound?
**A.** 59.6 ± 0.4 ms

**Q.** And the QT (anaesthetized rat; 50 mg/kg po, 80 min)?
**A.** 60.0 ± 0.0 ms

**Q.** And the PQ (anaesthetized rat; 50 mg/kg po, 90 min)?
**A.** 59.6 ± 1.3 ms

**Q.** And the QT (anaesthetized rat; 50 mg/kg po, 90 min)?
**A.** 60.0 ± 0.0 ms

**Q.** What about the PQ (anaesthetized rat; 300 mg/kg po, 0 min) of the same compound?
**A.** 51.6 ± 3.6 ms

**Q.** And the QT (anaesthetized rat; 300 mg/kg po, 0 min)?
**A.** 58.0 ± 2.0 ms

**Q.** And the PQ (anaesthetized rat; 300 mg/kg po, 5 min)?
**A.** 51.2 ± 3.4 ms

**Q.** And the QT (anaesthetized rat; 300 mg/kg po, 5 min)?
**A.** 57.2 ± 2.0 ms

**Q.** What about the PQ (anaesthetized rat; 300 mg/kg po, 10 min) of the same compound?
**A.** 54.8 ± 2.1 ms

**Q.** And the QT (anaesthetized rat; 300 mg/kg po, 10 min)?
**A.** 55.6 ± 2.0 ms

**Q.** What about the PQ (anaesthetized rat; 300 mg/kg po, 20 min) of the same compound?
**A.** 55.2 ± 2.2 ms

**Q.** And the QT (anaesthetized rat; 300 mg/kg po, 20 min)?
**A.** 58.0 ± 2.0 ms

**Q.** And the PQ (anaesthetized rat; 300 mg/kg po, 30 min)?
**A.** 55.2 ± 2.2 ms

**Q.** What about the QT (anaesthetized rat; 300 mg/kg po, 30 min) of the same compound?
**A.** 58.0 ± 2.0 ms

**Q.** And the PQ (anaesthetized rat; 300 mg/kg po, 40 min)?
**A.** 55.2 ± 2.1 ms

**Q.** And the QT (anaesthetized rat; 300 mg/kg po, 40 min)?
**A.** 59.2 ± 0.8 ms

**Q.** What about the PQ (anaesthetized rat; 300 mg/kg po, 50 min) of the same compound?
**A.** 55.8 ± 2.8 ms

**Q.** And the QT (anaesthetized rat; 300 mg/kg po, 50 min)?
**A.** 60.0 ± 0.0 ms

**Q.** And the PQ (anaesthetized rat; 300 mg/kg po, 60 min)?
**A.** 56.0 ± 2.8 ms

**Q.** What about the QT (anaesthetized rat; 300 mg/kg po, 60 min) of the same compound?
**A.** 59.2 ± 0.8 ms

**Q.** What about the PQ (anaesthetized rat; 300 mg/kg po, 70 min) of the same compound?
**A.** 55.4 ± 2.3 ms

**Q.** And the QT (anaesthetized rat; 300 mg/kg po, 70 min)?
**A.** 60.0 ± 0.0 ms

**Q.** What about the PQ (anaesthetized rat; 300 mg/kg po, 80 min) of the same compound?
**A.** 56.0 ± 2.4 ms

**Q.** What about the QT (anaesthetized rat; 300 mg/kg po, 80 min) of the same compound?
**A.** 60.0 ± 0.0 ms

**Q.** What about the PQ (anaesthetized rat; 300 mg/kg po, 90 min) of the same compound?
**A.** 56.0 ± 2.4 ms

**Q.** And the QT (anaesthetized rat; 300 mg/kg po, 90 min)?
**A.** 59.6 ± 0.4 ms

**Q.** For `CCC(CO)NCCOc1c(C)cccc1Cl` (stereo not shown) [Compound 4, R,S-2-((2-(2-chloro-6-methylphenoxy)ethyl)amino)butan-1-ol], which “Max induction (calculated)” value ([1]; @ 200uM) is on record?
**A.** 2 fold

**Q.** What about the pEC50 ([1]; RPXR cell line, read-out: EC50 (calculated)) of the same compound?
**A.** 4.13

**Q.** What about the “% of control specific binding” value (CB1) of the same compound?
**A.** 126.0%

**Q.** And the “% of control specific binding” value (PPARγ)?
**A.** 92.3%

**Q.** What about the “% of control specific binding” value (sst (non-selective)) of the same compound?
**A.** 75.5%

**Q.** And the “% of control specific binding” value (GAL2)?
**A.** 111.9%

**Q.** What about the “% of control specific binding” value (5-HT5a) of the same compound?
**A.** 52.8%

**Q.** And the “% of control specific binding” value (A1)?
**A.** 124.5%

**Q.** What about the “% of control specific binding” value (CCK2 (CCKB)) of the same compound?
**A.** 107.4%

**Q.** And the “% of control specific binding” value (5-HT3)?
**A.** 76.2%

**Q.** And the “% of control specific binding” value (D5)?
**A.** 54.4%

**Q.** And the “% of control specific binding” value (Y2)?
**A.** 126.5%

**Q.** What about the “% of control specific binding” value (CCR1) of the same compound?
**A.** 100.7%

**Q.** And the “% of control specific binding” value (ETB)?
**A.** 134.4%

**Q.** What about the “% of control specific binding” value (CCK1 (CCKA)) of the same compound?
**A.** 99.8%
